No end group written: not given here.
Target: T1, mouse RBP4 (Mus musculus, UniProt Q00724)
T1 construct: 6XHis; made in house; host or cells: E. coli
Experiment: Surface plasmon resonance (SPR) binding of SYL-motif peptides to immobilized RBP4
Details: SPR affinity fit, Figure 6B; repeated in the discussion as calculated binding affinity; read-out: Best-fit values Kd
Procedure: Purified RBP4 protein with >90% purity and 0.56 mg/mL concentration was immobilized on Biacore Sensor Chip CM5 (ITDD Biacore S200 Surface Plasmon Resonance instrument at University of Minnesota). The two-flow cell surface activated for using one as blank and other as test. Using Amine Coupling Kit (Cat. No. BR100050; Cytiva, Marlborough, MA, US) 1-ethyl-3-(3-dimethylaminopropyl) carbodiimide hydrochloride (EDC), N-hydroxysuccinimide (NHS), after surface activation, the purified RBP4 with immobilization buffer 10 mM Sodium acetate, pH 5.0, was immobilized with target of 1,200 Response Unit (RU) for achieving Rmax of 30RU in kinetic study. The reaction stopped and washed with Ethanolamine. The system was re-primed with running buffer PBST (phosphate-buffered saline solution with a 0.05% Tween20 detergent solution). The kinetic assay performed on the two flow cells, the blank was used as reference cell and the active cell with RBP4 was used for the binding study. […] The program was run and non-specific binding on the reference cell subtracted bulk refractive index from the active sensorgram and analyzed for the association, dissociation and stabilization of the reads. […]

HVRDKLDMFEDKLESYLTHMNETGTLTPIILQVKELISVTKG [mouse RBPR2]
Kd: 25.4 µM
